{"source": "patent EP1661955A1", "about": "“Antifouling coating comprising a polymer with functional groups bonded to an enzyme” (Nederlandse Organisatie voor …, priority 2004, dated 2006)", "tested_on": "cyprid larvae of the barnacle species Balanus amphitrite", "assay": "Barnacle settlement inhibition test, enzymes in solution", "format": "in vivo", "settings": "reference compound in solution; concentration at which 50 % settlement reduction takes place", "text": "The barnacle settlement test determines settlement inhibitory activity of biocidal compounds. For this test mass reared cyprid larvae of the barnacle species Balanus amphitrite are used. Adult barnacles, kept under standardised conditions, are forced to produce naupliar larvae that are collected and grown up separately at constant temperature and a fixed light:dark period. When larvae reach the cyprid stage, which is the settling phase, they are collected and set apart prior to testing.\nTest compounds are usually tested in a range of concentrations prepared directly in seawater or after pre-dissolution in a suitable solvent. Settlement tests are carried out in polystyrene multiwell plates. Wells contain either 1 mL of a test solution or 1 mL of a control solution. Plates are incubated for 24 - 48 hours under constant temperature and light:dark regime to allow settlement and metamorphosis of the cyprids.\nAfter incubation the wells are screened and numbers of settled and non-settled larvae counted using a stereo microscope. Numbers of settled larvae are expressed as a percentage of total larvae in the well. Average % settlement is calculated in four replicates. Subsequently a settlement response curve in relation to substance concentration is drawn and an EC50 value, concentration at which 50 % settlement reduction takes place, calculated. […]", "data": [{"smiles": "CCCCCCCCn1sc(Cl)c(Cl)c1=O", "note": "[Seanine 211]", "values": [{"measurement": "EC50 value", "result": 0.4, "unit": "µg/mL"}]}]}
